This is an account of results in ChEMBL document CHEMBL1201862, “PubChem BioAssay data set” (2004).

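Method: 48-hour compound exposure of cells in 96-well plates, five concentrations, linear interpolation of endpoints. GI50 is the concentration that inhibits growth by half.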 Calls of active or inactive are those of the source. No stated cut-off is given here; in the data, active = GI50 up to about 1.1 µM and inactive = higher. Some results are limits rather than exact numbers.

Among the test systems are 786-0; ACHN; CCRF-CEM; DMS-273; HOP-62; HT-29; IGROV-1; K562; M14; Malme-3M; NCI-H23; OVCAR-5; RPMI-8226; SF-268; SF-295; SF-539; SK-MEL-28; SN12C; UO-31.
What all share (test): NCI anticancer screen, dose series, 48 h

Regarding `COc1ccccc1/C=C(\C#N)C(=O)c1ccccc1`, the GI50 with 786-0, in the test on ACHN, in the test with CCRF-CEM, with DMS-273, in the test with HOP-62 and in the test with HT-29 was > 100 µM (inactive) throughout. Further, the GI50 in the test with IGROV-1, in the test on K562, in the test on M14, in the test with Malme-3M, in the test on NCI-H23 and in the test with OVCAR-5 was > 100 µM (inactive) each time. The GI50 with RPMI-8226, with SF-268, in the test on SF-295, in the test with SF-539, in the test with SK-MEL-28 and in the test on SN12C was > 100 µM (inactive) in each case. In the test on UO-31, the GI50 is > 100 µM (inactive).

For the molecule `C[C@]12Cc3conc3C(O)=C1CC[C@@H]1C2CC[C@@]2(C)C1CC[C@@H]2O` (some centres not stated), the GI50 in the test with 786-0 is 16.1 µM (inactive); in the test on ACHN it was 23.3 µM (inactive); with CCRF-CEM, 7.62 µM (inactive); with DMS-273, 5.22 µM (inactive); in the test with HOP-62, 50.4 µM (inactive); in the test on HT-29, 19.7 µM (inactive). In addition, the GI50 in the test with IGROV-1 was 26 µM (inactive); in the test on K562 it was 3.66 µM (inactive); in the test on M14 it was 12.4 µM (inactive); in the test with Malme-3M, 9.4 µM (inactive); with NCI-H23, 18.1 µM (inactive); in the test on OVCAR-5 it was 50.2 µM (inactive). In addition, the GI50 in the test with RPMI-8226 is 1.93 µM (inactive); in the test on SF-268 it was 14.6 µM (inactive); in the test on SF-295, 18 µM (inactive); in the test with SF-539 it was 15.8 µM (inactive); in the test with SK-MEL-28, 12.1 µM (inactive); in the test with SN12C it was 28.9 µM (inactive). Moreover, the GI50 with UO-31 is 15.3 µM (inactive).

In the case of `Cc1nn(C)c(=S)n(C)c1=O`, the GI50 in the test with 786-0 is 3.27 µM (inactive); in the test with ACHN it was 0.387 µM (active); in the test with CCRF-CEM it was 1.55 µM (inactive); in the test on DMS-273, 0.427 µM (active); in the test with HOP-62, 1.81 µM (inactive); in the test on HT-29, 24.8 µM (inactive). Moreover, the GI50 is 1 µM (active) in the test on IGROV-1; 0.343 µM (active) with K562; 0.773 µM (active) in the test on M14; 2.89 µM (inactive) in the test with Malme-3M; 0.483 µM (active) in the test on NCI-H23; 2.26 µM (inactive) in the test on OVCAR-5. For the same molecule, the GI50 in the test with RPMI-8226 was 0.556 µM (active); in the test with SF-268, 0.56 µM (active); with SF-295, 0.571 µM (active); with SF-539 it was 0.83 µM (active); in the test on SK-MEL-28, 0.571 µM (active); with SN12C, 0.927 µM (active). The GI50 in the test with UO-31 is 0.229 µM (active).

For the molecule `CC(=O)O[C@]1(C)CCC2C(C)C(=O)OC2C2C(C)[C@@H](O)CC21` (some centres not stated), the GI50 in the test with 786-0 is 31.4 µM (inactive); in the test on ACHN, 29.3 µM (inactive); in the test on CCRF-CEM it was 23.8 µM (inactive); with DMS-273 it was 22.4 µM (inactive); in the test with HOP-62, 19.3 µM (inactive); with HT-29, 31.5 µM (inactive). Besides, the GI50 with IGROV-1 is 40.7 µM (inactive); with K562 it was 17.1 µM (inactive); with M14, 20.8 µM (inactive); in the test with Malme-3M, > 100 µM (inactive); with NCI-H23 it was 36.6 µM (inactive); with OVCAR-5, 29.8 µM (inactive). In addition, the GI50 in the test with RPMI-8226 is 20.5 µM (inactive); with SF-268 it was 33.3 µM (inactive); in the test with SF-295 it was 72.3 µM (inactive); in the test on SF-539, 39.5 µM (inactive); in the test with SK-MEL-28 it was 34 µM (inactive); in the test on SN12C it was 35.6 µM (inactive). Further, the GI50 in the test on UO-31 is 48.9 µM (inactive).

In the case of `O=C(O)CCNS(=O)(=O)c1ccc2ccccc2c1`, the GI50 with 786-0, in the test on ACHN, in the test on CCRF-CEM, with DMS-273, with HT-29 and with IGROV-1 was > 100 µM (inactive) in each case. Moreover, the GI50 with K562, with M14, in the test on Malme-3M, with NCI-H23, in the test with OVCAR-5 and with RPMI-8226 was > 100 µM (inactive) in each case. The GI50 in the test with SF-268, in the test with SF-295, in the test with SF-539, with SK-MEL-28, in the test with SN12C and with UO-31 was > 100 µM (inactive) each time.

On to `O=c1[nH]n2c(=O)cc[nH]c2c1-c1nnns1`, for which the GI50 with 786-0, with ACHN, with CCRF-CEM, with DMS-273, with HOP-62 and with HT-29 was > 100 µM (inactive) in each case. Moreover, the GI50 with IGROV-1, in the test on K562, in the test with M14, in the test with Malme-3M, with NCI-H23 and with OVCAR-5 was > 100 µM (inactive) in each case. Moreover, the GI50 with RPMI-8226, in the test with SF-268, with SF-295, in the test on SF-539, in the test on SK-MEL-28 and in the test on SN12C was > 100 µM (inactive) each time. In addition, the GI50 in the test with UO-31 was > 100 µM (inactive).

Consider `O=c1c2c(nc3n1CCC3)sc1c(O)c(Br)ccc12`, for which the GI50 is 17.5 µM (inactive) in the test with 786-0; 14.6 µM (inactive) in the test with ACHN; 15.5 µM (inactive) with CCRF-CEM; 14.9 µM (inactive) in the test with DMS-273; 19.1 µM (inactive) with HOP-62; 12.5 µM (inactive) with HT-29. Moreover, the GI50 with IGROV-1 was 24.1 µM (inactive); with K562, 19.3 µM (inactive); with M14, > 100 µM (inactive); in the test on Malme-3M it was 17.5 µM (inactive); in the test on NCI-H23, 27 µM (inactive); in the test on OVCAR-5, 20.7 µM (inactive). Besides, the GI50 in the test on RPMI-8226 was 21.3 µM (inactive); with SF-268, 60.4 µM (inactive); with SF-295 it was 17.3 µM (inactive); in the test on SF-539, 15.5 µM (inactive); in the test with SK-MEL-28, 16.4 µM (inactive); in the test with SN12C, 16.4 µM (inactive). In the test with UO-31, the GI50 was 18.8 µM (inactive).

Consider `O=C(O)CCC1(Br)CCCCC(Br)C1=O` (configuration not stated), for which the GI50 with 786-0 is > 100 µM (inactive); in the test on ACHN, > 100 µM (inactive); with CCRF-CEM, 95.3 µM (inactive); in the test on DMS-273, > 100 µM (inactive); with HOP-62, > 100 µM (inactive); with HT-29, > 100 µM (inactive). Moreover, the GI50 with IGROV-1, in the test with K562, in the test on M14, in the test with Malme-3M, in the test on NCI-H23 and in the test with OVCAR-5 was > 100 µM (inactive) each time. Besides, the GI50 in the test with RPMI-8226, in the test with SF-268, with SF-295, in the test with SF-539, with SK-MEL-28 and with SN12C was > 100 µM (inactive) in each case. Moreover, the GI50 in the test on UO-31 is > 10 µM (inactive).

Consider `CC(=O)Nc1ccc(C(=O)N2N=C(C)/C(=C/c3ccccc3O)C2=O)cc1`, for which the GI50 in the test on 786-0, in the test with ACHN, with CCRF-CEM, in the test with DMS-273, in the test on HOP-62 and with HT-29 was > 100 µM (inactive) throughout. Also, the GI50 with K562, with M14, with Malme-3M, with NCI-H23, in the test on OVCAR-5 and in the test with RPMI-8226 was > 100 µM (inactive) in each case. The GI50 in the test with SF-268, in the test on SF-295, with SF-539, in the test with SK-MEL-28, in the test on SN12C and in the test on UO-31 was > 100 µM (inactive) each time.

With `C/C(=N\NC(N)=O)c1sc(-c2nc(C)c(/C(C)=N/NC(N)=O)s2)nc1C`, the GI50 was > 100 µM (inactive) in the test with 786-0; > 100 µM (inactive) with ACHN; 90.4 µM (inactive) in the test with CCRF-CEM; 21.1 µM (inactive) in the test with DMS-273; > 100 µM (inactive) in the test on HOP-62; > 100 µM (inactive) with HT-29. The GI50 with IGROV-1 was > 100 µM (inactive); in the test on K562, 53.8 µM (inactive); in the test with M14, > 100 µM (inactive); in the test on Malme-3M, > 100 µM (inactive); with NCI-H23, > 100 µM (inactive); with OVCAR-5, > 100 µM (inactive). The GI50 in the test with RPMI-8226, in the test with SF-268, in the test on SF-295, with SF-539, in the test on SK-MEL-28 and in the test on SN12C was > 100 µM (inactive) each time. Further, the GI50 in the test with UO-31 was > 100 µM (inactive).

Take `c1nc2cscc2c2cscc12`: the GI50 with 786-0, in the test with ACHN, in the test with CCRF-CEM, in the test with DMS-273, in the test with HOP-62 and in the test on HT-29 was > 100 µM (inactive) in each case. In addition, the GI50 with IGROV-1, in the test on K562, with M14, in the test with Malme-3M, in the test with NCI-H23 and in the test with OVCAR-5 was > 100 µM (inactive) in each case. The GI50 in the test on RPMI-8226, in the test on SF-268, in the test with SF-295, in the test on SF-539, with SK-MEL-28 and with SN12C was > 100 µM (inactive) throughout. Also, in the test with UO-31, the GI50 is > 100 µM (inactive).
